Laboratory results taken from patent US20100255580A1, “Differentiation of Human Embryonic Stem Cells” (LIFESCCAN, INC., priority 2007, published 2010).
“And” between values parts separate entries of the source, which are not always exact repeats. Equal entries are not always repeated.

What was measured:
Format in all cases: cell-based
[1] = tested on: human embryonic stem cell line H9; assay: Cytokine array analysis of cell lysates and conditioned media; design: key to BMP-4 expression / BMP-6 expression / EGF expression / FGF-6 expression / Fractalkine expression / GCP-2 expression / IL-3 expression / IL-4 expression / IL-6 expression / M-CSF expression / MIG expression / Amphiregulin expression: cytokine array signal, normalized and background-subtracted
Procedure: The effect that Wnt-3a treatment has on cytokine expression was analyzed using a protein array. Cells of the human embryonic stem cell line H9 were cultured according to the methods described in Example 15. At passage 54, cells were differentiated in the presence of 100 ng/ml ActivinA+/−10 ng/ml Wnt3a for 2 days in 0.5% FBS DMEM/F12. Cells were subsequently cultured for an additional three days in 100 ng/mlActivin A and 2% FBS DMEM/F12. At the end of the 5th day, CXCR4 expression was determined by FACS for each treatment group.
Cell lysates were prepared from cells of each treatment group, with a mammalian cell lysis kit (Sigma-Aldrich, MO). Conditioned media from each treatment group was collected and concentrated. Cytokine array analysis was completed using Cytokine Array panels provided by RayBiotech, GA (http://www.raybiotech.com/). Table VII lists cytokine, growth factor, and receptor expression following normalization of the data and background subtraction. For each panel, positive and negative controls are also included. Th data shown are two independent samples per cell treatment group (1,2).

[2] = tested on: human embryonic stem cell line H9; assay: Real-time PCR, H9 maintained on […] and differentiated on MEFs (Example 25); conditions: lower concentration of Activin A, regardless of Wnt3a
Procedure: (§1) Cells from the human embryonic stem cell line H9 cultured on […]™ for at least five passages were seeded onto MEF feeders in ES media.
(§2) At day 3 and 5, the cultures were analyzed by real time PCR for SOX-17, SOX-7, Alpha-fetal protein (AFP), CXCR4, Brychyury (Bry), gooscecoid (GSC), HNF-3 beta, GATA4, hTERT and Oct4. AFP and SOX-7 are regarded as visceral endoderm markers while GATA4, HNF-3beta and SOX-17 represent definite endoderm markers and GSC, Bry, and CXCR4 represent markers of primitive streak. hTERT and Oct-4 are markers for self renewal and pluripotency respectively. FACS analysis was also performed at day 3 and 5.

[3] = tested on: human embryonic stem cell line H9; assay: FACS of CXCR4 and CD9, H9 maintained on […] and differentiated on MEFs (Example 25); conditions: without (label Activin A) or with Wnt3a
Procedure: Adhered cells were removed from culture plates by five-minute incubation with TrypLE™ Express solution (Invitrogen, CA). Released cells were resuspended in human embryonic stem cell culture medium and recovered by centrifugation, followed by washing and resuspending the cells in a staining buffer consisting of 2% BSA, 0.05% sodium azide in PBS (Sigma, MO). As appropriate, the cells were Fc-receptor blocked for 15 minutes using a 0.1% γ-globulin (Sigma) solution. […] Controls included appropriate isotype matched antibodies, unstained cells, and cells stained only with secondary conjugated antibody. All incubations with antibodies were performed for 30 mins at 4° C. after which the cells were washed with the staining buffer. Samples that were stained with unconjugated primary antibodies were incubated for an additional 30 mins at 4° C. with secondary conjugated PE or -APC labeled antibodies. See Table I for a list of secondary antibodies used. Washed cells were pelleted and resuspended in the staining buffer, and the cell surface molecules were identified using a FACS Array (BD Biosciences) instrument, collecting at least 10,000 events.
as §1, §2

“Activin A: a member of the TGFβ superfamily; R&D Systems; Group 2 = Activin A (100 ng/ml)” was tested, and the 1L-1beta expression ([1]; Cell conditioned media) was 117.99 and 75.93, the 1L-1ra expression ([1]; Cell conditioned media) was 142.34 and 93.74 and the Acrp30 expression ([1]; Cell conditioned media) was 1,797.52 and 1,319.88. The AgRP expression ([1]; Cell conditioned media) was 378.17 and 195.90, the Amphiregulin expression ([1]; Cell conditioned media) was 250.52 and 151.01 and the Angiogenin expression ([1]; Cell conditioned media) was 13,726.35 and 11,749.55. For the same substance, the Angiopoietin-2 expression ([1]; Cell conditioned media) was 655.82 and 632.60, the AxI expression ([1]; Cell conditioned media) was 401.31 and 324.05 and the BDNF expression ([1]; Cell conditioned media) was 689.22 and 563.39. The BMP-4 expression ([1]; Cell conditioned media) was 583.40 and 541.83, the BMP-6 expression ([1]; Cell conditioned media) was 354.91 and 355.28 and the “CK beta 8-1 expression” value ([1]; Cell conditioned media) was 17.79 and 25.31. The CNTF expression ([1]; Cell conditioned media) was 282.81 and 211.86, the EGF expression ([1]; Cell conditioned media) was 1,681.85 and 1,406.12 and the Eotaxin expression ([1]; Cell conditioned media) was 207.89 and 199.67. The Eotaxin-2 expression ([1]; Cell conditioned media) was 890.56 and 744.31, the Eotaxin-3 expression ([1]; Cell conditioned media) was 975.77 and 665.56 and the FGF-7 expression ([1]; Cell conditioned media) was 449.49 and 352.47. For the same substance, the “Flt-3 Ligand expression” value ([1]; Cell conditioned media) was 315.58 and 277.47, the Fractalkine expression ([1]; Cell conditioned media) was 120.80 and 145.30 and the GCP-2 expression ([1]; Cell conditioned media) was 203.21 and 166.86. The GDNF expression ([1]; Cell conditioned media) was 176.99 and 194.98, the GM-CSF expression ([1]; Cell conditioned media) was 777.25 and 722.75 and the IFN-gamma expression ([1]; Cell conditioned media) was 283.74 and 559.64. The IGF-I expression ([1]; Cell conditioned media) was 88.96 and 148.11, the IGFBP-1 expression ([1]; Cell conditioned media) was 33.71 and 24.37 and the IGFBP-2 expression ([1]; Cell conditioned media) was 27,656.85 and 28,473.95. The IGFBP-4 expression ([1]; Cell conditioned media) was 10,091.09 and 6,029.45, the IL-1alpha expression ([1]; Cell conditioned media) was 10,155.70 and 5,842.90 and the IL-2 expression ([1]; Cell conditioned media) was 188.22 and 363.72. For the same substance, the IL-3 expression ([1]; Cell conditioned media) was 4,598.86 and 5,260.77, the IL-4 expression ([1]; Cell conditioned media) was 357.72 and 239.04 and the IL-6 expression ([1]; Cell conditioned media) was 7,377.28 and 9,527.88. For the same substance, the IL-7 expression ([1]; Cell conditioned media) was 456.98 and 430.27, the IL-10 expression ([1]; Cell conditioned media) was 722.93 and 564.32 and the IL-16 expression ([1]; Cell conditioned media) was 259.39 and 214.67. For the same substance, the LIGHT expression ([1]; Cell conditioned media) was 619.92 and 453.71, the Leptin expression ([1]; Cell conditioned media) was 2,999.42 and 2,016.38 and the M-CSF expression ([1]; Cell conditioned media) was 529.09 and 269.04. The MCP-1 expression ([1]; Cell conditioned media) was 572.17 and 500.58, the MCP-4 expression ([1]; Cell conditioned media) was 123.61 and 61.87 and the MIG expression ([1]; Cell conditioned media) was 272.50 and 486.52. The NAP-2 expression ([1]; Cell conditioned media) was 97.39 and 110.61, the NT-3 expression ([1]; Cell conditioned media) was 97.39 and 171.55 and the PDGF-BB expression ([1]; Cell conditioned media) was 4,729.96 and 8,521.09. The RANTES expression ([1]; Cell conditioned media) was 393.31 and 347.78, the SCF expression ([1]; Cell conditioned media) was 691.09 and 487.46 and the “TGF-beta 1 expression” value ([1]; Cell conditioned media) was 752.90 and 740.56. The “TGF-beta 3 expression” value ([1]; Cell conditioned media) was 111.44 and 115.30, the TNF-beta expression ([1]; Cell conditioned media) was 675.17 and 671.19 and the bFGF expression ([1]; Cell conditioned media) was 7,948.03 and 4,993.83. The 1L-1beta expression ([1]; Cell lysate) was 1.00 and 1.13, the 1L-1ra expression ([1]; Cell lysate) was 33.00 and 25.91 and the Amphiregulin expression ([1]; Cell lysate) was 17.50 and 15.44. The AxI expression ([1]; Cell lysate) was 637.50 and 795.83, the BDNF expression ([1]; Cell lysate) was 167.50 and 167.82 and the BMP-4 expression ([1]; Cell lysate) was 247.00 and 273.70. The “CK beta 8-1 expression” value ([1]; Cell lysate) was 1.00 and 1.13, the Eotaxin-2 expression ([1]; Cell lysate) was 262.00 and 336.77 and the Eotaxin-3 expression ([1]; Cell lysate) was 184.50 and 284.96. The FGF-6 expression ([1]; Cell lysate) was 629.00 and 379.57, the GM-CSF expression ([1]; Cell lysate) was 433.00 and 636.37 and the I-309 expression ([1]; Cell lysate) was 152.50 and 246.10. For the same substance, the IFN-gamma expression ([1]; Cell lysate) was 349.00 and 441.52, the IGFBP-2 expression ([1]; Cell lysate) was 3,785.50 and 5,554.45 and the IGFBP-4 expression ([1]; Cell lysate) was 5,553.00 and 6,043.27. For the same substance, the IL-1alpha expression ([1]; Cell lysate) was 1,236.00 and 1,216.99, the IL-5 expression ([1]; Cell lysate) was 400.50 and 555.84 and the IL-6 expression ([1]; Cell lysate) was 828.50 and 516.98. For the same substance, the IL-7 expression ([1]; Cell lysate) was 190.00 and 313.12, the IL-13 expression ([1]; Cell lysate) was 428.50 and 555.84 and the IL-15 expression ([1]; Cell lysate) was 599.50 and 808.13. For the same substance, the Leptin expression ([1]; Cell lysate) was 900.50 and 617.79, the MCP-1 expression ([1]; Cell lysate) was 242.50 and 282.71 and the MIG expression ([1]; Cell lysate) was 291.00 and 226.39. For the same substance, the MIP-1-delta expression ([1]; Cell lysate) was 1.50 and 1.13, the NT-3 expression ([1]; Cell lysate) was 1.00 and 1.13 and the SCF expression ([1]; Cell lysate) was 74.50 and 148.67. The “TGF-beta 1 expression” value ([1]; Cell lysate) was 362.00 and 230.33, the TNF-alpha expression ([1]; Cell lysate) was 431.00 and 579.49 and the TNF-beta expression ([1]; Cell lysate) was 241.00 and 342.40. For the same substance, the bFGF expression ([1]; Cell lysate) was 59,820.50 and 54,057.29, the AFP expression [2] was “very high” and the “CXCR4 positive cells (FACS)” value ([3]; day 3, high concentration of Activin A) was 32-42%. For the same substance, the “CXCR4 positive cells (FACS)” value ([3]; day 5, high concentration of activin A) was 28-32%.
